From patent publication US20170107212A1, “NOVEL COMPOUNDS” (Bayer Pharma Aktiengesellschaft, priority 2014, published 2017) come the findings set out here.

Each structure is given as a SMILES string. Where a name gives a salt, the structure may show the parent alone.

For experiment [1], the system named is constitutive active colorectal cancer cell (CRC) Wnt pathway, HCT116 TOPFlash. In words: Cellular reporter assay, HCT116 Super TopFlash (constitutive active Wnt pathway), luciferase expression. It counts as cell-based. The following applies: Homo sapiens, HCT-116, 36 h, HCT116 Super TopFlash reporter cells, 36 hours incubation, dilution series 50 μM to 15 nM. The procedure:
In order to discover and characterize small molecules which inhibit the constitutive active colorectal cancer cell (CRC) Wnt pathway, a cellular reporter assay was employed. The corresponding assay cell was generated by transfection of the colorectal cancer cell line HCT116 (ATCC, #CCL-247) with the Super TopFlash vector (Morin, Science 275, 1997, 1787-1790; Molenaar et al., Cell 86 (3), 1996, 391-399). The HCT116 cell line is cultivated at 37° C. and 5% CO2 in DMEM/F-12 (Life Technologies, #11320-074), supplemented with 2 mM glutamine, 20 mM HEPES, 1.4 mM pyruvate, 0.15% Na-bicarbonate and 10% foetal bovine serum (GIBCO, #10270), this cancer cell line is pathophysiological relevant since it carries a deletion of position S45 in the β-catenin gene, leading to constitutive active Wnt signaling. Stable transfectants were generated by cotransfection with pcDNA3 and selection of stable transfected cells with 1 mg/ml G418.
(§1) In preparation of the assay, the two cell lines were plated 24 hours before at 10000 cells per well of a 384 micro titre plate (MTP) in 30 μL growth medium. Selective inhibitory activity for small molecules on the mutated Wnt pathway was determined after parallel incubation of both (TOP and FOP) HCT116 reporter cell lines with a compound dilution series from 50 μM to 15 nM in steps of 3.16-fold dilutions in CAFTY buffer (130 mM NaCl, 5 mM KCl, 20 mM HEPES, 1 mM MgCl2, 5 mM NaHCO3, pH 7.4) containing 2 mM Ca^2+ and 0.01% BSA. The compounds were thereby serially prediluted in 100% DMSO and thereafter in addition 50 fold into the CAFTY compound dilution buffer (described above). From this dilution 10 μL were added to the cells in 30 μL growth medium and incubated for 36 hours at 37° C. and 5% CO2. Thereafter luciferase assay buffer (1:1 mixture of luciferase substrate buffer (20 mM Tricine, 2.67 mM MgSO4, 0.1 mM EDTA, 4 mM DTT, 270 μM Coenzyme A, 470 μM Luciferin, 530 μM ATP, ph adjusted to pH 7.8 with a sufficient volume of 5M NaOH) and Triton buffer (30 mL Triton X-100, 115 mL glycerol, 308 mg Dithiothreitol, 4.45 g Na2HPO4.2H2O, 3.03 g TRIS HCl, ad 1 l H20, pH 7.8) was added as equal volume to the compound solution on the cells to determine luciferase expression as a measure of Wnt signaling activity in a luminometer.
Background: Reporter assays use an easily measured gene product as a stand-in for the process of interest.

A further experiment deals with HCT116 FOPFlash. In words: Control reporter assay, HCT116 FOP control vector (non-functional TCF elements), luciferase expression. It counts as cell-based. The settings on record: Homo sapiens, HCT-116, 36 h, HCT116 FOP control reporter cells, 36 hours incubation, dilution series 50 μM to 15 nM. The procedure:
In a parallel approach, HCT116 cells were cotransfected with the FOP control vector and pcDNA3. The FOP vector is identical to the TOP construct, but it contains instead of functional TCF elements a randomized, non-functional sequence. For this transfection a stable transfected cell line was generated as well.
as §1

A word on the IC50: it is the concentration at which inhibition is half-maximal. Consider `O=C(CN1CCOCC1)Nc1cc(C(=O)Nc2ccc(-c3cncnc3)cn2)ccc1OC(F)(F)F` [Example 1, 3-[(morpholin-4-ylacetyl)amino]-N-[5-(pyrimidin-5-yl)pyridin-2-yl]-4-(trifluoromethoxy)benzamide], for which the figures for the concentration for half-maximal inhibition (IC50) (in experiment [1]; with HCT116 FOPFlash) were 145 nM and no less than 50 µM, respectively.

Take `O=C(Nc1nnc(-c2cccnc2)s1)c1ccc(OC(F)(F)F)c(NC(=O)C2(N3CCOCC3)CC2)c1` [Example 2, 3-({[1-(morpholin-4-yl)cyclopropyl]carbonyl}amino)-N-[5-(pyridin-3-yl)-1,3,4-thiadiazol-2-yl]-4-(trifluoromethoxy)benzamide]: the half-maximal inhibitory concentration (IC50) was 282 nM in experiment [1] and no less than 50 µM in the experiment with HCT116 FOPFlash.

For `CC(C(=O)Nc1cc(C(=O)Nc2ccc(-c3ccc(N)nc3)nc2)ccc1OC(F)(F)F)N1CCOCC1` (stereo not drawn) [Example 3, N-(6′-amino-2,3′-bipyridin-5-yl)-3-{[2-(morpholin-4-yl)propanoyl]amino}-4-(trifluoromethoxy)benzamide], the IC50 was 20.9 nM in experiment [1] and no less than 50 µM with HCT116 FOPFlash.

For the molecule `CC(C(=O)Nc1cc(C(=O)Nc2ccc(-c3cncnc3)nc2)ccc1OC(F)(F)F)N1CCOCC1` (stereo not drawn) [Example 4, 3-{[2-(morpholin-4-yl)propanoyl]amino}-N-[6-(pyrimidin-5-yl)pyridin-3-yl]-4-(trifluoromethoxy)benzamide], the IC50 in experiment [1] was 19.5 nM; in the experiment on HCT116 FOPFlash it was no less than 50 µM.

Take `CC(C(=O)Nc1cc(C(=O)Nc2ccc(-c3cccnc3F)nc2)ccc1OC(F)(F)F)N1CCOCC1` (stereo not drawn) [Example 5, N-(2′-fluoro-2,3′-bipyridin-5-yl)-3-{[2-(morpholin-4-yl)propanoyl]amino}-4-(trifluoromethoxy)benzamide]: the IC50 in experiment [1] is 16.5 nM; with HCT116 FOPFlash, no less than 50 µM.

As for `CC(C(=O)Nc1cc(C(=O)Nc2ccc(-c3cnc(N)nc3)nc2)ccc1OC(F)(F)F)N1CCOCC1` (stereo not drawn) [Example 6], the values for the IC50 (in experiment [1]; in the experiment with HCT116 FOPFlash) were 19 nM and no less than 50 µM, respectively.

In the case of `COc1ncc(-c2ccc(NC(=O)c3ccc(OC(F)(F)F)c(NC(=O)C(C)N4CCOCC4)c3)cn2)cn1` (stereo not drawn) [Example 7, N-[6-(2-methoxypyrimidin-5-yl)pyridin-3-yl]-3-{[2-(morpholin-4-yl)propanoyl]amino}-4-(trifluoromethoxy)benzamide], the IC50 in experiment [1] was 115 nM; in the experiment with HCT116 FOPFlash, no less than 50 µM.

Turning to `CC(C(=O)Nc1cc(C(=O)Nc2ccc(-c3cccnc3)nc2)ccc1OC(F)(F)F)N1CCOCC1` (stereo not drawn) [Example 8, N-(2,3′-bipyridin-5-yl)-3-{[2-(morpholin-4-yl)propanoyl]amino}-4-(trifluoromethoxy)benzamide], the IC50 in experiment [1] is 11.6 nM; in the experiment on HCT116 FOPFlash, no less than 50 µM.

On to `CN1CCN(CC(=O)Nc2cc(C(=O)Nc3nnc(-c4ccccn4)s3)ccc2OC(F)(F)F)CC1` [Example 9, 3-{[(4-methylpiperazin-1-yl)acetyl]amino}-N-[5-(pyridin-2-yl)-1,3,4-thiadiazol-2-yl]-4-(trifluoromethoxy)benzamide hydrochloride], for which the values for the IC50 (in experiment [1]; with HCT116 FOPFlash) were 514 nM and 22.5 µM, respectively.

In the case of `CN1CCN(CC(=O)Nc2cc(C(=O)Nc3ccc(-c4ccc(N)nc4)cn3)ccc2OC(F)(F)F)CC1` [Example 10, N-(6′-amino-3,3′-bipyridin-6-yl)-3-{[(4-methylpiperazin-1-yl)acetyl]amino}-4-(trifluoromethoxy)benzamide], the 50% inhibitory concentration (IC50) in experiment [1] is 58 nM; in the experiment with HCT116 FOPFlash it was no less than 50 µM.

Regarding `CN1CCN(CC(=O)Nc2cc(C(=O)Nc3ccc(-c4cccnc4)cn3)ccc2OC(F)(F)F)CC1` [Example 11, N-(3,3′-bipyridin-6-yl)-3-{[(4-methylpiperazin-1-yl)acetyl]amino}-4-(trifluoromethoxy)benzamide], the IC50 was 18.8 nM in experiment [1] and no less than 50 µM with HCT116 FOPFlash.

In the case of `CN1CCN(CC(=O)Nc2cc(C(=O)Nc3ccc(-c4cnc(N)nc4)cn3)ccc2OC(F)(F)F)CC1` [Example 12, N-[5-(2-aminopyrimidin-5-yl)pyridin-2-yl]-3-{[(4-methylpiperazin-1-yl)acetyl]amino}-4-(trifluoromethoxy)benzamide], the IC50 in experiment [1] is 132 nM; in the experiment on HCT116 FOPFlash it was no less than 50 µM.
